Assays:
6-week old male chickens = assay: In vivo lipid metabolism evaluation in normocholesterolemic chickens (serum cholesterol pools); set-up: species or system chicken; settings: test compound 50 ppm in corn-soybean diet for four weeks; for LDL Cholesterol: control 62.7 ± 2.5; for HDL Cholesterol: control 99.9 ± 1.9; for Total Cholesterol: fasted 36 h, refed 48 h, control 183.0 ± 4.5
Method: Serum cholesterol, triglycerides, low density and high density liproprotein cholesterol as determined in drug treated birds.
(§1) Newborn male chicks (8 for each group) were raised on a standard corn-soybean based control diet for two weeks and then switched to either control or experimental diets for four weeks. Drug treatment consisted of the addition of test compounds to the corn-soybean-based diet at a concentration of 50 ppm. At the end of the feeding period, all the birds were fasted (36 hours) and refed (48 hours) to induce cholesterolgenic enzymes prior to sacrifice. The specific activity of HMGR, total serum cholesterol levels, LDL cholesterol and HDL cholesterol pools were determined using previously described methods (Qureshi et al., J. Biol. Chem., 261, 10544 (1986)) (Table 1).

[1] = tested on: β-Hydroxy-β-Methylglutaryl Coenzyme A Reductase (HMGR); assay: Ex vivo HMGR suppression in the liver of drug dosed chickens; set-up: species or system chicken; settings: test compound 50 ppm in diet for four weeks, control 33.8
Method: β-Hydroxy-β-Methylglutaryl Coenzyme A Reductase (HMGR) activity in the liver of drug dosed chickens.
as §1

LDL = LDL antioxidant assay (conjugated diene formation); type: biochemical, rabbit; settings: for LR (end of lag phase of LDL oxidation) vs control: whole rabbit plasma incubated with drug, LDL isolated, time of first derivative maximum of conjugated diene kinetic curve
Method: Inhibition of LDL oxidation as measured by conjugated diene formation.
Whole rabbit plasma was incubated with either vehicle or drug, and the LDL was isolated by ultracentrifugation. EDTA was removed by dialysis and analysis of co-dependent LDL oxidation was determined by conjugated diene formation using the protocol established by Esterbauer et al., (Free Radical Res. Commun. 6(1), 75-75 (1989)). The time of the first derivative maximum in the kinetic curves, corresponding to the end of the lag phase (LR) of the reaction, indicates both the intrinsic effectiveness of the antioxidant combined with its local concentration with in the LDL particles. […] Substitution of methylene for oxygen at position 1 would diminish antioxidant capacity.

CC(C)=CCC/C(C)=C/CC/C(C)=C/CCC1(C)CCc2cc(O)ccc2C1 (centres unmarked) [Compound 12, 5,6,7,8-Tetrahydro-6-Methyl-6-(4,8,12-Trimethyl-3(E), (7E), 11-tridecatrienyl)-2-Naphthalenol]
LDL Cholesterol (6-week old male chickens): 28.4 ± 1.3 | HDL Cholesterol (6-week old male chickens): 85.3 ± 1.3 | Total Cholesterol (6-week old male chickens): 125.5 ± 3.0 | HMGR (specific activity) [1]: 14.6 | LDL antioxidation properties (in words) (LDL; rabbit LDL, conjugated diene formation): exhibits LDL antioxidation properties | LR (end of lag phase of LDL oxidation) vs control (LDL): 1.32

CC(C)=CCC/C(C)=C/CC/C(C)=C/CCC1(C)CCc2cc(O)ccc2O1 (centres unmarked) [Tocotrienol, reference compound]
LDL Cholesterol (6-week old male chickens): 42.8 ± 2.8 | HDL Cholesterol (6-week old male chickens): 91.7 ± 1.0 | Total Cholesterol (6-week old male chickens): 149.8 ± 4.5 | HMGR (specific activity) [1]: 13.6 | LR (end of lag phase of LDL oxidation) vs control (LDL): 2.01

From patent US5204373A, “Farnesylated tetrahydro-naphthalenols as hypolipidemic agents” (Bristol-Myers Squibb Company, priority 1991, dated 1993)
